Where two headings read alike, the source gives them in different places.
Experiments:
eastern black nightshade = assay: Test C pre-/postemergence herbicide test; format: in vivo, Solanum ptycanthum; details: for Nightshade plant response rating: Preemergence, scale 0 to 100, 0 no effect, 100 complete control
In short: (§1)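 Pre- and postemergence application, solvent/surfactant formulation; post at 1- to 4-leaf stage (2–18 cm). Greenhouse 12–14 d. Visual rating vs controls, 0 = no effect, 100 = complete control.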

yellow nutsedge = assay: Test C pre-/postemergence herbicide test; format: in vivo, Cyperus esculentus
In short: as §1

bermudagrass = assay: Test C pre-/postemergence herbicide test; format: in vivo, Cynodon dactylon
In short: as §1

ducksalad = assay: Test C flooded paddy test; format: in vivo, Heteranthera limosa
cocklebur = assay: Test C pre-/postemergence herbicide test; format: in vivo, Xanthium strumarium
In short: as §1

giant foxtail = assay: Test A pre-/postemergence herbicide test; format: in vivo, Setaria faberi; details: for pest or weed control at 500 g/ha / pest or weed control at 2000 g/ha: Setaria faberi, 240 h
In short: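 Visual injury rating on a 0–100 scale (0 no effect, 100 complete control) versus untreated controls, about ten days after treatment in greenhouse. Pre: directed soil spray onto seeded sandy loam. Post: spray to runoff on plants 2–10 cm tall at one- to two-leaf stage.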

[1] = 250 g ai/ha, scale 0 to 100 (0 no effect, 100 complete control), visual, 12 to 14 days, preemergence
[2] = Postemergence, 500 g ai/ha, scale 0 to 100
[3] = Postemergence, 250 g ai/ha, scale 0 to 100, 0 no effect, 100 complete control
[4] = Preemergence, 500 g ai/ha, scale 0 to 100, 0 no effect, 100 complete control
[5] = postemergence, 62 g ai/ha, scale 0 to 100
[6] = 125 g ai/ha, scale 0-100, preemergence
[7] = Postemergence, 125 g ai/ha, scale 0 to 100, 0 no effect, 100 complete control
[8] = 62 g ai/ha, scale 0 to 100 (0 no effect, 100 complete control)
[9] = 125 g ai/ha, scale of 0 to 100, 0 is no effect, 100 is complete control
[10] = 500 g ai/ha, visual rating after 12 to 14 days, scale 0 to 100 (0 no effect, 100 complete control)
[11] = Postemergence, 500 g ai/ha, 0 to 100 scale, 0 no effect, 100 complete control
[12] = Postemergence, 2000 g ai/ha, 0 to 100 scale, 0 no effect, 100 complete control
[13] = Preemergence, 500 g ai/ha, visual rating, 0 to 100 scale (0 no effect, 100 complete control)
[14] = Preemergence, 2000 g ai/ha, 0 to 100 scale, 0 no effect, 100 complete control
[15] = 62 g ai/ha, preemergence, scale 0 to 100
[16] = 125 g ai/ha, scale 0 (no effect) to 100 (complete control), visual, 12 to 14 days, preemergence
[17] = 250 g ai/ha, scale 0-100, preemergence
[18] = 500 g ai/ha, scale 0 to 100 (0 no effect, 100 complete control), visual, 12 to 14 days, preemergence
[19] = 250 g ai/ha, scale of 0 to 100, 0 is no effect, 100 is complete control

C=Cn1nc(C(C)(C)C)cc1C(=O)Nc1cccc(C(=O)N(CC)CC)c1 [Compound 34]
Plant response rating (0 = no effect, 100 = complete control), Nightshade (eastern black nightshade; 62 g ai/ha, preemergence): 10
Plant response rating, Nightshade (eastern black nightshade; [1]): 90
Nightshade plant response rating (eastern black nightshade; 500 g ai/ha): 100
Plant response rating (0 = no effect, 100 = complete control), Nutsedge, Yellow (yellow nutsedge; 62 g ai/ha, preemergence): 0
Plant response rating, Nutsedge, Yellow (yellow nutsedge; [1]): 0
Nutsedge, Yellow plant response rating (yellow nutsedge; [2]): 20
Plant response rating, Nutsedge, Yellow (yellow nutsedge; [3]): 0
Nutsedge, Yellow plant response rating (yellow nutsedge; [4]): 0
Plant response rating, Nutsedge, Yellow (yellow nutsedge; postemergence, 125 g ai/ha, scale 0 to 100): 0
Plant response rating, Nutsedge, Yellow (yellow nutsedge; [5]): 0
Plant response rating (0 = no effect, 100 = complete control), Bermudagrass (bermudagrass; 62 g ai/ha, preemergence): 20
Plant response rating, Bermudagrass (bermudagrass; [6]): 50
Plant response rating, Bermudagrass (bermudagrass; [1]): 90
Bermudagrass plant response rating (bermudagrass; [2]): 50
Plant response rating, Bermudagrass (bermudagrass; [7]): 40
Bermudagrass plant response rating (bermudagrass; Postemergence, 250 g ai/ha, scale 0 to 100): 50
Bermudagrass plant response rating (bermudagrass; [4]): 100
Plant response rating, Bermudagrass (bermudagrass; [5]): 10
Ducksalad plant response rating (ducksalad; [8]): 15
Ducksalad plant response rating (ducksalad; [9]): 25
Plant response rating, Ducksalad (ducksalad; 250 g ai/ha, visual rating after 12 to 14 days, scale 0 to 100 (0 no effect, 100 complete control)): 25
Plant response rating, Ducksalad (ducksalad; [10]): 75
Plant response rating (0 = no effect, 100 = complete control), Cocklebur (cocklebur; 62 g ai/ha, preemergence): 0
Plant response rating, Cocklebur (cocklebur; [6]): 0
Plant response rating, Cocklebur (cocklebur; [1]): 0
Cocklebur plant response rating (cocklebur; [2]): 70
Plant response rating, Cocklebur (cocklebur; [7]): 20
Plant response rating, Cocklebur (cocklebur; [3]): 50
Cocklebur plant response rating (cocklebur; [4]): 0
Plant response rating, Cocklebur (cocklebur; [5]): 20
Plant response rating, Foxtail, Giant (giant foxtail; [11]): 30
Plant response rating, Foxtail, Giant (giant foxtail; [12]): 40
Foxtail, Giant plant response rating (giant foxtail; [13]): 40
Foxtail, Giant plant response rating (giant foxtail; [14]): 85

CCNC(=O)c1ccc(F)c(NC(=O)C2CC(C(C)(C)C)=NN2CC)c1 (racemic) [Compound 269]
Plant response rating, Nightshade (eastern black nightshade; [15]): 90
Plant response rating, Nightshade (eastern black nightshade; [16]): 100
Plant response rating, Nightshade (eastern black nightshade; [17]): 100
Plant response rating, Nightshade (eastern black nightshade; [18]): 100
Plant response rating, Nutsedge, Yellow (yellow nutsedge; [15]): 5
Plant response rating, Nutsedge, Yellow (yellow nutsedge; [16]): 10
Plant response rating, Nutsedge, Yellow (yellow nutsedge; [17]): 40
Plant response rating, Nutsedge, Yellow (yellow nutsedge; [18]): 60
Plant response rating, Bermudagrass (bermudagrass; 62 g ai/ha, preemergence, scale 0 to 100, 0 no effect, 100 complete control): 100
Plant response rating, Bermudagrass (bermudagrass; [16]): 100
Plant response rating, Bermudagrass (bermudagrass; [17]): 100
Bermudagrass plant response rating (bermudagrass; [4]): 100
Ducksalad plant response rating (ducksalad; 62 g ai/ha, scale 0 to 100): 55
Ducksalad plant response rating (ducksalad; 125 g ai/ha, scale 0 to 100 (0 no effect, 100 complete control)): 80
Ducksalad plant response rating (ducksalad; [19]): 80
Plant response rating, Ducksalad (ducksalad; [10]): 85
Plant response rating, Cocklebur (cocklebur; [15]): 0
Plant response rating, Cocklebur (cocklebur; [16]): 0
Plant response rating, Cocklebur (cocklebur; [17]): 5
Cocklebur plant response rating (cocklebur; [4]): 50
Foxtail, Giant plant response rating (giant foxtail; [11]): 35
Plant response rating, Foxtail, Giant (giant foxtail; [12]): 65
Foxtail, Giant plant response rating (giant foxtail; Preemergence, 2000 g ai/ha, visual rating, 0 to 100 scale (0 no effect, 100 complete control)): 100
Foxtail, Giant plant response rating (giant foxtail; preemergence, 500 g ai/ha, visual injury, 0 to 100 scale (0 no effect, 100 complete control)): 100

CCN1N=C(C(C)(C)C)CC1C(=O)Nc1cc(C(=O)N(C)C)ccc1F (stereo not shown) [Compound 268, N-[5-[(dimethylamino)carbonyl]-2-fluorophenyl]-3-(1,1-dimethylethyl)-1-ethyl-4,5-dihydro-1H-pyrazole-5-carboxamide]
pest or weed control at 62 g/ha (eastern black nightshade; pre-emergence, 62 g ai/ha, preemergence, scale 0 to 100, read-out: Plant response rating, Nightshade): 100%
pest or weed control at 125 g/ha (eastern black nightshade; pre-emergence, 125 g ai/ha, scale 0 (no effect) to 100 (complete control), visual, 12 to 14 days, read-out: Plant response rating, Nightshade): 100%
pest or weed control at 250 g/ha (eastern black nightshade; pre-emergence, 250 g ai/ha, scale 0-100, read-out: Plant response rating, Nightshade): 100%
pest or weed control at 500 g/ha (eastern black nightshade; pre-emergence, 500 g ai/ha, scale 0 to 100 (0 no effect, 100 complete control), visual, 12 to 14 days, read-out: Plant response rating, Nightshade): 100%
pest or weed control at 62 g/ha (yellow nutsedge; Cyperus, pre-emergence, 62 g ai/ha, preemergence, scale 0 to 100, read-out: Plant response rating, Nutsedge, Yellow): 30%
pest or weed control at 125 g/ha (yellow nutsedge; Cyperus, pre-emergence, 125 g ai/ha, scale 0 (no effect) to 100 (complete control), visual, 12 to 14 days, read-out: Plant response rating, Nutsedge, Yellow): 50%
pest or weed control at 250 g/ha (yellow nutsedge; Cyperus, pre-emergence, 250 g ai/ha, scale 0-100, read-out: Plant response rating, Nutsedge, Yellow): 60%
pest or weed control at 500 g/ha (yellow nutsedge; Cyperus, pre-emergence, 500 g ai/ha, scale 0 to 100 (0 no effect, 100 complete control), visual, 12 to 14 days, read-out: Plant response rating, Nutsedge, Yellow): 70%
pest or weed control at 62 g/ha (bermudagrass; Cynodon dactylon, pre-emergence, 312 h, 62 g ai/ha, preemergence, scale 0 to 100, 0 no effect, 100 complete control, read-out: Plant response rating, Bermudagrass): 100%
pest or weed control at 125 g/ha (bermudagrass; Cynodon dactylon, pre-emergence, 312 h, 125 g ai/ha, scale 0 (no effect) to 100 (complete control), visual, 12 to 14 days, read-out: Plant response rating, Bermudagrass): 100%
pest or weed control at 250 g/ha (bermudagrass; Cynodon dactylon, pre-emergence, 312 h, 250 g ai/ha, scale 0-100, read-out: Plant response rating, Bermudagrass): 100%
pest or weed control at 500 g/ha (bermudagrass; Cynodon dactylon, pre-emergence, 312 h, Preemergence, 500 g ai/ha, scale 0 to 100, 0 no effect, 100 complete control, read-out: Bermudagrass plant response rating): 100%
pest or weed control at 62 g/ha (ducksalad; Heteranthera limosa, 62 g ai/ha, scale 0 to 100, read-out: Ducksalad plant response rating): 60%
pest or weed control at 125 g/ha (ducksalad; Heteranthera limosa, 125 g ai/ha, scale 0 to 100 (0 no effect, 100 complete control), read-out: Ducksalad plant response rating): 70%
pest or weed control at 250 g/ha (ducksalad; Heteranthera limosa, 250 g ai/ha, scale of 0 to 100, 0 is no effect, 100 is complete control, read-out: Ducksalad plant response rating): 85%
pest or weed control at 500 g/ha (ducksalad; Heteranthera limosa, 500 g ai/ha, visual rating after 12 to 14 days, scale 0 to 100 (0 no effect, 100 complete control), read-out: Plant response rating, Ducksalad): 90%
pest or weed control at 62 g/ha (cocklebur; Xanthium strumarium, pre-emergence, 312 h, 62 g ai/ha, preemergence, scale 0 to 100, read-out: Plant response rating, Cocklebur): 10%
pest or weed control at 125 g/ha (cocklebur; Xanthium strumarium, pre-emergence, 312 h, 125 g ai/ha, scale 0 (no effect) to 100 (complete control), visual, 12 to 14 days, read-out: Plant response rating, Cocklebur): 60%
pest or weed control at 250 g/ha (cocklebur; Xanthium strumarium, pre-emergence, 312 h, 250 g ai/ha, scale 0-100, read-out: Plant response rating, Cocklebur): 70%
pest or weed control at 500 g/ha (cocklebur; Xanthium strumarium, pre-emergence, 312 h, Preemergence, 500 g ai/ha, scale 0 to 100, 0 no effect, 100 complete control, read-out: Cocklebur plant response rating): 85%
pest or weed control at 500 g/ha (giant foxtail; post-emergence, Postemergence, 500 g ai/ha, 0 to 100 scale, 0 no effect, 100 complete control, read-out: Foxtail, Giant plant response rating): 55%
pest or weed control at 2000 g/ha (giant foxtail; post-emergence, Postemergence, 2000 g ai/ha, 0 to 100 scale, 0 no effect, 100 complete control, read-out: Plant response rating, Foxtail, Giant): 80%
pest or weed control at 2000 g/ha (giant foxtail; pre-emergence, Preemergence, 2000 g ai/ha, visual rating, 0 to 100 scale (0 no effect, 100 complete control), read-out: Foxtail, Giant plant response rating): 100%
pest or weed control at 500 g/ha (giant foxtail; pre-emergence, preemergence, 500 g ai/ha, visual injury, 0 to 100 scale (0 no effect, 100 complete control), read-out: Foxtail, Giant plant response rating): 100%

CCN1CCc2c(NC(=O)c3cc(C(C)(C)C)nn3CC)cccc2C1=O [Compound 63]
Plant response rating (0 = no effect, 100 = complete control), Nightshade (eastern black nightshade; 62 g ai/ha, preemergence): 70
Plant response rating, Nightshade (eastern black nightshade; [16]): 90
Plant response rating, Nightshade (eastern black nightshade; [1]): 95
Nightshade plant response rating (eastern black nightshade; 500 g ai/ha): 95
Plant response rating (0 = no effect, 100 = complete control), Nutsedge, Yellow (yellow nutsedge; 62 g ai/ha, preemergence): 0
Plant response rating, Nutsedge, Yellow (yellow nutsedge; [16]): 0
Plant response rating, Nutsedge, Yellow (yellow nutsedge; [1]): 0
Nutsedge, Yellow plant response rating (yellow nutsedge; [4]): 40
Plant response rating (0 = no effect, 100 = complete control), Bermudagrass (bermudagrass; 62 g ai/ha, preemergence): 50
Plant response rating, Bermudagrass (bermudagrass; [16]): 90
Plant response rating, Bermudagrass (bermudagrass; [1]): 90
Bermudagrass plant response rating (bermudagrass; [4]): 100
Ducksalad plant response rating (ducksalad; [8]): 0
Ducksalad plant response rating (ducksalad; [9]): 50
Ducksalad plant response rating (ducksalad; [19]): 70
Plant response rating, Ducksalad (ducksalad; [10]): 85
Plant response rating (0 = no effect, 100 = complete control), Cocklebur (cocklebur; 62 g ai/ha, preemergence): 0
Plant response rating, Cocklebur (cocklebur; [16]): 0
Plant response rating, Cocklebur (cocklebur; [1]): 0
Cocklebur plant response rating (cocklebur; [4]): 0
Plant response rating, Foxtail, Giant (giant foxtail; [11]): 50
Plant response rating, Foxtail, Giant (giant foxtail; [12]): 80
Foxtail, Giant plant response rating (giant foxtail; [13]): 95
Foxtail, Giant plant response rating (giant foxtail; [14]): 100

From patent US20060069132A1, “Azolecarboxamide herbicides” (priority 2004, published 2006)
